According to patent US7169559B2, “LDL receptor-related proteins 1 and 2 and treatment of bone or cartilage conditions” (Fonterra Corporate Research and Development Ltd., priority 2002, dated 2007):

Experiments:
[1] = system: cultured osteoblastic cells; experiment: osteoblast proliferation (mitogenic/osteogenic effect); format: cell-based, rat, mouse, and human
Description: Osteoblasts were isolated from 20-day old fetal rat calvariae as previously described (Cornish et al. (1999) Amer. J. Physiol-Endocrinol. Metab. 277:E779–E783). Briefly, calvariae were excised and the frontal and parietal bones, free of suture and periosteal tissue, were collected. After washing, the calvariae were treated twice with 3 mL of 1 mg/mL collagenase for 7 minutes at 37° C. After discarding the supernatants from these two digestions, the calvariae were treated a further twice with 3 mL of 2 mg/mL collagenase (30 mins, 37° C.). The supernatants of the latter two digestions were pooled, centrifuged, and the cells washed. Cells were grown to confluence and then subcultured into 24 well plates. Cells were growth arrested in minimum essential medium (MEM)/0.1% bovine serum albumin for 24 h before harvest.
The human osteoblast-like osteosarcoma cell line SaOS-2 was maintained in DMEM (GIBCO 12100-046) supplemented with 2.2 g/L NaHCO3, 10% FBS, and 10 ml/L penicillin-streptomycin (GIBCO 15140-122). Cells were plated in 75 cm^2 flasks and when confluent used for total RNA isolation or proliferation assays.

bacterial = settings: cited from earlier work

Lactoferricin
osteogenic effect / osteogenic activity [1]: only a modest osteogenic effect | bacterial killing (bacterial): effective in bacterial killing

Transferrin: Transferrin, compared with lactoferrin as mitogen on osteoblasts [reference compound]
mitogenic effect on osteoblasts [1]: not a potent mitogen
